Laboratory results taken from US20240366606A1, “MRGPRX2 ANTAGONISTS AND USES THEREOF” (The Regents of the University of California, priority 2021, published 2024).

Tests used:
MRGPRX4 [1] = target: MRGPRX4 (Homo sapiens, UniProt Q96LA9, L83S); assay: Mutagenesis of MRGPRX4, agonist-stimulated Gq activation; assay type: cell-based
Description: (§1) Bioluminescence resonance energy transfer assay 2 (BRET2). To measure the receptor mediated G protein activation, HEK293T cells were plating either in six-well dishes containing 350-400 k cells per well, or 10-cm dishes at approximately 2 million per dish 20-24 h prior to transfection. The cells were then transfected with a 1:1:1:1 ratio of the receptor:GurLuc8:Gβ:GγGFP DNA. Transit 2020 (Mirus biosciences) was used to complex the DNA at a ratio of 3 μL Transit/μg DNA, in OptiMEM (GIBCO) at a concentration of 10 ng DNA per μL OptiMEM. After 24 h, the cells were plated in poly-L-lysine coated 96-well white clear bottom cell culture plates in plating media (DMEM+1% dialyzed FBS) at a density of 40-50,000 cells in 200 μl per well and incubated overnight. The next day, the media was carefully aspirated and cells were washed once with 60 μl of drug buffer (1×HBSS, 20 mM HEPES, 0.1% (w/v) BSA, pH 7.4), then 60 μl drug buffer containing coelenterazine 400a (nanolight technology) at 5 μM final concentration was added to each well and incubate for 5 min. Cells were then treated with 30 μl of 3× designated drug for an additional 5 minutes. After drug incubation, plates were read in an LB940 Mithras plate reader (Berthold Technologies) with a 395 nm (RLuc8-coelenterazine 400a) and 510 nm (GFP2) emission filters, at 1 s integration times. Each plate was read four times, and measurements from the fourth read were used in all analyses. BRET ratio was computed as the ratio of the GFP2 emission to rLuc8 emission. Data were normalized to % WT stimulation with indicated reference agonist and analyzed using nonlinear regression “log(agonist) vs. response” in GraphPad Prism 9.0. Log(agonist) vs normalized response—variable slope was used for (R)-ZINC-3573 pocket mutations (D184 Å, E164 Å, W243 Å, F244 Å, L247 Å, and W248 Å).

MRGPRX4 [2] = target: T1, MRGPRX4 (Homo sapiens (Human), UniProt Q96LA9); conditions: previously identified (ref. 17); cited from earlier work
T1 sequence (Q96LA9 whole entry): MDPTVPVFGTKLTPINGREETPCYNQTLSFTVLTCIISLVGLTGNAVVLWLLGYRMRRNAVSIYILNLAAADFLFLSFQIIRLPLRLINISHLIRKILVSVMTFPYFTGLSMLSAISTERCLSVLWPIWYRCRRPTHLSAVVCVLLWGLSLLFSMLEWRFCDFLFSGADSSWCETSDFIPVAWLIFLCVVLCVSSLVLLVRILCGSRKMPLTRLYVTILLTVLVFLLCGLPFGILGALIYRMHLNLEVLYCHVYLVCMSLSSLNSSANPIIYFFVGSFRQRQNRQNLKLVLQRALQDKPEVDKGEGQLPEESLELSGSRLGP

MRGPRX4 [3] = target: T1, MRGPRX4; assay: MRGPRX4 agonist activity (FLIPR Ca2+ assay, concentration-response); assay type: cell-based
Description: FLIPR Ca2+ assay. Tetracycline inducible MRGPRX2 or MRGPRX4 stable cells [Flp-In™ T-REx™-293 cell which is derived from HEK 293 cells (ATCC, CRL 1573)] were maintained in DMEM containing 10% (v/v) FBS, 100 units ml^−1 penicillin G, 100 μg ml^−1 streptomycin, 100 μg ml^−1 hygromycin B, and 15 μg ml^−1 blasticidin ^16. NK1 stably expressing cell were maintained in DMEM containing 10% (v/v) FBS, 100 units ml^−1 penicillin G and 100 μg ml^−1 streptomycin. On the day of assay, cells were plated into Poly-L-Lysine (PLL) coated 384-well black clear bottom cell culture plates with DMEM buffer, which is composed of 1% (v/v) dialyzed FBS, 100 units ml^−1 penicillin G, 100 μg ml^−1 streptomycin with 1 μg ml^−1 tetracycline at density of 20,000 cells in 40 μl per well for overnight. For NK1 stable cells, the same media used for MRGPRX2 or MRGPRX4 cells except the tetracycline were used. […] Once loaded in FLIPR (Molecular Devices), basal fluorescence was measured for 10 s, then 10 μl of test compounds were added followed by continued fluorescence measurement for an additional 120 s. […] Data were normalized to % reference compound stimulation and analyzed using nonlinear regression “log(agonist) vs. response” in GraphPad Prism 9.0.

[4] = target: Kir6.2/SUR1 potassium channel (Homo sapiens (Human), UniProt Q09428+Q14654); assay: Electrophysiology of Kir6.2/SUR1 in HEK293 cells; assay type: cell-based; conditions: compared to nateglinide
Kir6.2/SUR1 potassium channel, sequence (Q09428 whole entry, the tested form may be a part): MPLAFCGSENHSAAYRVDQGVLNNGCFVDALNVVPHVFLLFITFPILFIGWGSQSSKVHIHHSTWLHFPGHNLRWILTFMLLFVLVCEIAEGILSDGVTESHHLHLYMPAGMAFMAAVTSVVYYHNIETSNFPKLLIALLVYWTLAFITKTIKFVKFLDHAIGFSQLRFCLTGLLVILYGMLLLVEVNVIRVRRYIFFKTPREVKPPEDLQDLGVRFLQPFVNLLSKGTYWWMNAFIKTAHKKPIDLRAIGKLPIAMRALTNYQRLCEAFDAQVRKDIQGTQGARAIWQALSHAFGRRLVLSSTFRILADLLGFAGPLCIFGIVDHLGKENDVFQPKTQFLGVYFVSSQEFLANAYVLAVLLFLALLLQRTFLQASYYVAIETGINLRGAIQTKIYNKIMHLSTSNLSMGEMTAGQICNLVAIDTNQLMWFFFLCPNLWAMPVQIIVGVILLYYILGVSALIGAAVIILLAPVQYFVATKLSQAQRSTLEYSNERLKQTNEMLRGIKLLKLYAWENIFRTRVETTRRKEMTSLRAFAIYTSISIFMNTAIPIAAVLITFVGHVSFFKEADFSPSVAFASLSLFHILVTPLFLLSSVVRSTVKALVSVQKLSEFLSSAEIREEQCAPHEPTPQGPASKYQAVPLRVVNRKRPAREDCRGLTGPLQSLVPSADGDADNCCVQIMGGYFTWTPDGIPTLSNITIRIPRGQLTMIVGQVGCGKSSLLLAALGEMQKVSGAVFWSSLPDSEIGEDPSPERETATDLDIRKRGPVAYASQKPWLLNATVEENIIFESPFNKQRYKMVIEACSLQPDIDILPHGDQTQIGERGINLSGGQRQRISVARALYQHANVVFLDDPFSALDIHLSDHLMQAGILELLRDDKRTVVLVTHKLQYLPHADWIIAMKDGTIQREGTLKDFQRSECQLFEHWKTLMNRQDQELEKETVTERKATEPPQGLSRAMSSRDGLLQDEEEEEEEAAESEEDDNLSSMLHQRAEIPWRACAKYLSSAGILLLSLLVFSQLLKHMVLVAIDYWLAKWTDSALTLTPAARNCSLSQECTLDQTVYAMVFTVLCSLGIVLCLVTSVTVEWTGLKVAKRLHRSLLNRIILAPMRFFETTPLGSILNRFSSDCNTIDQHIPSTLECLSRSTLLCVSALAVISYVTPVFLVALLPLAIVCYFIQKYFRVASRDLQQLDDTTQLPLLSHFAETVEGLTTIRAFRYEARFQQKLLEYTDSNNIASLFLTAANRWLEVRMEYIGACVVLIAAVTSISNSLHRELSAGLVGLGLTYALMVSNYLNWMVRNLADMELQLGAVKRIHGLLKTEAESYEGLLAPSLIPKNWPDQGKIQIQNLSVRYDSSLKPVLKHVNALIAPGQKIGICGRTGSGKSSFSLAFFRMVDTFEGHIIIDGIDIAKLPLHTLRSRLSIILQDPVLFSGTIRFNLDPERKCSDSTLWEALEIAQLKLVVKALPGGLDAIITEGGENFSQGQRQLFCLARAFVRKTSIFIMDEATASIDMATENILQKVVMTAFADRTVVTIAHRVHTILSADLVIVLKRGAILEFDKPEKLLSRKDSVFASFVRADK
Kir6.2/SUR1 potassium channel, sequence (Q14654 whole entry, the tested form may be a part): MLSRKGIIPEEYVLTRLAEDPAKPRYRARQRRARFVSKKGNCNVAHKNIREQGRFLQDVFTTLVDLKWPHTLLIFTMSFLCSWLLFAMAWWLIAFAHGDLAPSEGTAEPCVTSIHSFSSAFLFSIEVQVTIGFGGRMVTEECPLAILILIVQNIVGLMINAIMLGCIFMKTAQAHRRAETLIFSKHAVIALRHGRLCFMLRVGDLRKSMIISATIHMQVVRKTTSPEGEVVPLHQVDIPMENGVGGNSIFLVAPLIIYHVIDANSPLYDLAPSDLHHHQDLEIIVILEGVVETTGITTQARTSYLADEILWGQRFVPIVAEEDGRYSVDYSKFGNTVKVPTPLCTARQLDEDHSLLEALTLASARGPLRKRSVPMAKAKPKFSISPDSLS
Description: Electrophysiology. HEK293 cells were cultured in DMEM with 4.5 g L-^1 glucose, L-glutamine, and sodium pyruvate (Mediatech) containing 10% (v/v) FBS (Axenia BioLogix) and 1% (v/v) penicillin-streptomycin, at 37° C. and with 5% CO2. Cells were lifted with trypsin-EDTA (Life Technologies) and passaged to 6-well plates (Warner Instruments) 3-4 d before recording. Transient transfection was performed with Lipofectamine 2000 (Thermo Fisher Scientific) 2 days before recording. The plasmids of human Kir6.2 and SUR1 were the gift from Dr. Show-Ling Shyng (Oregon Health and Science University), and we fused mCherry fluorescent protein to the C-terminus of Kir6.2. The vector ratio for co-transfection of Kir6.2 to SUR1 was 1:10. Before recording, cells were lifted with trypsin-EDTA, kept in modified Tyrode's saline (140 mM NaCl, 5 mM KCl, 10 mM HEPES, 2 mM CaCl2), 1 mM MgCl2, 10 mM glucose, pH 7.2 ˜ 7.3 with HCl), and were used within 8 hours. For recording, an aliquot of cells was transferred to a recording chamber on a Nikon-TE2000 Inverted Scope (Nikon Instruments), and transfection was confirmed with fluorescent microscopy. The pipette solution contained: 145 mM KCl, 1 mM MgCl2, 5 mM EGTA, 2 mM CaCl2), 20 mM HEPES, 0.3 mM K2-ATP and 0.3 mM K2-ADP. Patch borosilicate pipettes (Sutter Instrument) were pulled from a Sutter P-97 puller with resistances of 2-3 MΩ. […]

320 GPCRs = assay: PRESTO-Tango GPCRome screening; assay type: cell-based; conditions: 3 μM
Description: GPCRome Screening. Screening of compounds against the PRESTO-Tango GPCRome was accomplished using previously described methods with several modifications (63). First, HTLA cells were plated in white 384-well clear bottom plates (Greiner) in DMEM (Sigma) with 1% (v/v) dialyzed FBS and 10 U per mL penicillin-streptomycin (Gibco). After 24 h, the cells were transfected using PEI (Sigma) with an in-plate adapted method (64). Briefly, 17 ng per well PRESTO-Tango GPCR DNAs were resuspended in OptiMEM (Gibco) and hybridized with PEI prior to dilution and distribution into 384-well plates and subsequent addition to cells. After overnight incubation, MS47134 at 5× final concentration (3 μM) diluted in DMEM with 1% (v/v) dialyzed FBS were added to cells without replacement of the medium for 18-20 h. On the day of assay, medium and drug solution were dumped and loaded with 20 ul per well of Bright-Glo reagent (Promega). Plates were incubated for 20 min in the dark and the luminescence was counted for cells using SpectraMax Luminescence reader. Dopamine receptor D2 serves as an assay control with 0.1 mM Quinpirole. Data were analyzed using GraphPad Prism 9.0.

MRGPRX4 [5] = target: MRGPRX4 (Homo sapiens, UniProt Q96LA9, Y130A); assay: Mutagenesis of MRGPRX4, agonist-stimulated Gq activation; assay type: cell-based
Description: as §1

MRGPRX2 [6] = target: MRGPRX2 (Homo sapiens, UniProt Q96LB1, F170A); assay: BRET2 Gq activation, MRGPRX2 pocket mutants, HEK293T cells; assay type: cell-based
Description: as §1

MRGPRX2 [7] = target: MRGPRX2 (Homo sapiens, UniProt Q96LB1, W243A); assay: as above; assay type: cell-based
Description: as §1

MRGPRX2 [8] = assay: as above; assay type: cell-based, human
Description: as §1

CC(C)[C@H]1CC[C@H](C(=O)N[C@H](Cc2ccccc2)C(=O)O)CC1 [nateglinide, reference compound]
effect of L83S mutation on potency (MRGPRX4 [1]): greatly attenuated the potency | agonist potency at MRGPRX4 (MRGPRX4 [2]): low micromolar agonist

C[C@]12CC3CC(C(=O)N[C@H](Cc4ccccc4)C(=O)O)(C1)C[C@@](C)(C3)C2 [MS47134]
EC50 (MRGPRX4 [3]): 150 nM | improved selectivity for MRGPRX4 over the Kir6.2/SUR1 potassium channel [4]: 47 fold | off-target profiling at 320 GPCRs (320 GPCRs): activity only at MRGPRX4 and MRGPRX1 | effect of L83S mutation on potency (MRGPRX4 [1]): greatly attenuated the potency | effect of Y130(ICL2)A mutation on potency of Gq activation (MRGPRX4 [5]): reduced the potency

cortistatin-14
reduction of potency by F170(ECL2)A mutation (MRGPRX2 [6]): 7 fold | effect of W243(6.55)A substitution on activity (MRGPRX2 [7]): completely reduced the activity

CN(C)[C@@H]1CCN(c2cc(-c3ccccc3)nc3ccnn23)C1 [(R)-ZINC-3573]
effect of substitution of D184(5.38) and E164(4.60) on efficacy (MRGPRX2 [8]): impaired the efficacy
